Test results reported in ChEMBL document CHEMBL5385961, “In vitro and in vivo evaluation of novel chromeno[2,3-d]pyrimidinones as therapeutic agents for triple negative breast cancer” (RSC Med Chem, 2024).

How the values were obtained:
MCF7 [1] = assay: Cytotoxicity against human MCF7 cells assessed as cell viability at 30 uM incubated for 72 hrs by SRB assay relative to control; type: functional; conditions: read-out: Activity
MDA-MB-231 [2] = assay: Cytotoxicity against human MDA-MB-231 cells assessed as cell viability at 30 uM incubated for 72 hrs by SRB assay relative to control; type: functional; conditions: read-out: Activity
MDA-MB-231 [3] = assay: Cytotoxicity against human MDA-MB-231 cells assessed as cell viability at 10 uM incubated for 72 hrs by SRB assay relative to control; type: functional; conditions: read-out: Activity
Hs-578T [4] = assay: Cytotoxicity against human Hs-578T cells assessed as cell viability at 30 uM incubated for 72 hrs by SRB assay relative to control; type: functional; conditions: read-out: Activity
Hs-578T [5] = assay: Cytotoxicity against human Hs-578T cells assessed as cell viability at 10 uM incubated for 72 hrs by SRB assay relative to control; type: functional; conditions: read-out: Activity
MCF7 [6] = assay: Cytotoxicity against human MCF7 cells assessed as cell viability at 10 uM incubated for 72 hrs by SRB assay relative to control; type: functional; conditions: read-out: Activity
Homo sapiens = species: Homo sapiens; assay: Selectivity index, ratio of IC50 for human MCF-10A cells to IC50 for human Hs-578T cells
[7] = Cytotoxicity against human MCF-10A cells assessed as inhibition of cell growth incubated for 72 hrs by SRB assay; type: toxicity, cell-based
Hs-578T [8] = assay: Cytotoxicity against human Hs-578T cells assessed as inhibition of cell growth incubated for 72 hrs by SRB assay; type: functional, cell-based

Row | SMILES | viability at 30 µM (MCF7 [1]) [%] | viability at 30 µM (MDA-MB-231 [2]) [%] | viability at 10 µM (MDA-MB-231 [3]) [%] | viability at 30 µM (Hs-578T [4]) [%] | viability at 10 µM (Hs-578T [5]) [%] | viability at 10 µM (MCF7 [6]) [%] | Ratio IC50 (Homo sapiens) | IC50 at 72 h [7] [µM] | IC50 (Hs-578T [8]) [µM]
1 | COc1ccccc1-c1nc2c(c(=O)[nH]1)Cc1cccc(OC)c1O2 | 54.8 | 63.6 | 82.9 | 80.2 | 86 | 85.5 |  |  | 
2 | COc1ccc2c(c1)C=C1C(=O)NC(c3c(OC)cc(OC)cc3OC)N=C1O2 (configuration not stated) | 100 | 78.5 | 86.3 | 65.5 | 97 | 101 |  |  | 
3 | CCC(CC)C1N=C2Oc3c(cccc3OC)C=C2C(=O)N1 (configuration not stated) | 84.8 | 64.1 | 85.8 | 83 | 98.4 | 85.9 |  |  | 
4 | COc1ccccc1-c1nc2c(c(=O)[nH]1)Cc1cc(Cl)ccc1O2 | 57.3 | 65 | 88.2 | 38.7 | 78.4 | 80 |  |  | 
5 | O=c1c(O)c(-c2ccc(O)c(O)c2)oc2cc(O)cc(O)c12 [QUERCETIN] |  |  |  |  |  |  | 0.82 | 9.32 | 50.5
6 | COc1cccc2c1Oc1nc(-c3ccc(Br)cc3)[nH]c(=O)c1C2 | 75.3 | 80.4 | 83.7 | 84.4 | 97.7 | 83.8 |  |  | 
7 | CC(C)(C)c1cc(-c2nc3c(c(=O)[nH]2)Cc2ccccc2O3)cc(C(C)(C)C)c1O | 94.7 | 95.2 | 95.1 | 81 | 80.2 | 97.7 |  |  | 
8 | COc1cc(OC)c(C2N=C3Oc4c(cccc4OC)C=C3C(=O)N2)c(OC)c1 (configuration not stated) | 91.8 | 77.4 | 83.6 | 86 | 94.8 | 99.9 |  |  | 
9 | COc1cccc2c1Oc1nc(/C=C/c3ccccc3)[nH]c(=O)c1C2 | 56.7 | 92.5 | 99.2 | 97.9 | 99.8 | 84.7 |  |  | 
10 | O=c1[nH]c(-c2ccc3c(c2)OCO3)nc2c1Cc1cc(Br)ccc1O2 | 83.1 | 77.8 | 85.3 | 78.5 | 86.1 | 83.4 |  |  | 
